Patent US8791143B2, “Anthranilic diamide derivatives having cyclic side-chains” (priority 2010, dated 2014)
Read-outs that look alike come from different tables or passages of the source.

What was measured:
[1] = system: caterpillars of the armyworm (Spodoptera frugiperda); test: Spodoptera frugiperda test (SPODFR spray treatment); assay type: in vivo; conditions: Spodoptera frugiperda, 168 h; for pest or weed control at 100 g/ha / pest or weed control at 500 g/ha: read-out: activity in % (caterpillars killed); for pest or weed control at 500 g/ha: application rate 500 g/ha
adult Musca domestica = test: Musca domestica test (MUSCDO); assay type: in vivo; conditions: 1152 h, read-out: activity (kill in %)
Description: (§1) Solvent: dimethyl sulphoxide
Vessels containing a sponge treated with the active compound preparation of the desired concentration are populated with adult Musca domestica.
(§2) After 48 days, the kill in % is determined.

Lucilia cuprina larvae = test: Lucilia cuprina test (LUCICU); assay type: in vivo; conditions: 1152 h, read-out: activity (kill in %)
Description: as §1
Vessels containing horse meat treated with the active ingredient preparation of the desired concentration are populated with about 20 Lucilia cuprina larvae.
as §2

[2] = log P by HPLC on reversed-phase columns (EEC Directive 79/831 Annex V.A8); assay type: physicochemical
[3] = system: green peach aphid (Myzus persicae); test: Myzus test (MYZUPE spray treatment); assay type: in vivo; conditions: Myzus persicae, 144 h; for pest or weed control at 100 g/ha / pest or weed control at 500 g/ha: read-out: activity in % (aphids killed); for pest or weed control at 500 g/ha: application rate 500 g/ha
[4] = system: larvae of the mustard beetle (Phaedon cochleariae); test: Phaedon test (PHAECO spray treatment); conditions: Phaedon cochleariae, 168 h, read-out: activity in % (beetle larvae killed)
Boophilus microplus = Boophilus microplus test (BOOPMI injection); assay type: in vivo; conditions: Rhipicephalus microplus, 168 h; 20 μg/animal, injection into the abdomen, after 7 days; read-out: activity in % (no fertile eggs laid)
Description: as §1
The active compound solution is injected into the abdomen (Boophilus microplus), and the animals are transferred into dishes and stored in a climate-controlled room.
The activity is assessed by […] of fertile eggs. 100% means that none of the ticks has laid any fertile eggs.

[5] = application rate 100 g/ha, after 7 days
[6] = reversed-phase C18 HPLC column, pH 2.7, HPLC reversed-phase C18, acidic range pH 2.7 (HCOOH), only or first value of the cell, read-out: log P
[7] = application rate 100 g/ha, after 6 days

Row | SMILES | chromatographic logP [2, 6] | inhibition at 100 g/ha ([1]; 100 g/ha, 7 d, comparison with prior art) | pest or weed control at 100 g/ha [1, 5] | pest or weed control at 100 ppm (adult Musca domestica; 100 ppm, after 48 days) | pest or weed control at 100 ppm (Lucilia cuprina larvae; 100 ppm, after 48 days) | inhibition at 100 g/ha ([3]; 100 g/ha, 6 d, comparison with prior art) | pest or weed control at 100 g/ha [3, 7] | pest or weed control at 100 g/ha [4] | pest or weed control at 0.02 mg (Boophilus microplus) | pest or weed control at 500 g/ha ([1]; after 7 days) | pest or weed control at 500 g/ha ([3]; after 6 days) | pest or weed control at 500 g/ha [4] | pest or weed control at 100 g/ha [1] | pest or weed control at 100 ppm (adult Musca domestica) | pest or weed control at 100 ppm (Lucilia cuprina larvae) | log P (second value after the slash) ([2]; pH 2.7) | chromatographic logP ([2]; pH 2.7, log P) | pest or weed control at 100 g/ha [3] | pest or weed control at 20 ppm (adult Musca domestica; 20 ppm, after 48 days)
1 | Cc1cc(C#N)cc(C(=O)NC2CCS(=O)(=O)C2)c1NC(=O)c1cc(Cn2nnc(C(F)(F)F)n2)nn1-c1ccccc1Cl (stereo not drawn) [Example 36] | 2.82 | 100% | 100% | 80% | 100% | 100% | 100% | 100% | 100% | – | – | – | – | – | – | – | – | – | –
2 | Cc1cc(Cl)cc(C(=O)NC2CCS(=O)(=O)C2)c1NC(=O)c1cc(Cn2nnc(C(F)(F)C(F)(F)F)n2)nn1-c1ncccc1Cl (stereo not drawn) [Example 37] | 3.13 | – | – | 80% | 100% | – | – | – | 100% | 100% | 100% | 100% | – | – | – | – | – | – | –
3 | Cc1cc(Cl)cc(C(=O)N[C@@H]2CCOC2=O)c1NC(=O)c1cc(Cn2nnc(C(F)(F)F)n2)nn1-c1ncccc1Cl [Example 42] | – | – | – | – | – | – | – | 100% | 100% | – | – | – | 100% | 90% | 100% | 2.53 | 2.84 | 100% | –

More lines, main results first:

Row | chromatographic logP [2, 6] | SMILES | inhibition at 100 g/ha ([1]; 100 g/ha, 7 d, comparison with prior art) | pest or weed control at 100 g/ha [1, 5] | pest or weed control at 100 ppm (adult Musca domestica; 100 ppm, after 48 days) | pest or weed control at 100 ppm (Lucilia cuprina larvae; 100 ppm, after 48 days) | inhibition at 100 g/ha ([3]; 100 g/ha, 6 d, comparison with prior art) | pest or weed control at 100 g/ha [3, 7] | pest or weed control at 100 g/ha [4] | pest or weed control at 0.02 mg (Boophilus microplus) | pest or weed control at 500 g/ha ([1]; after 7 days) | pest or weed control at 500 g/ha ([3]; after 6 days) | pest or weed control at 500 g/ha [4] | pest or weed control at 100 g/ha [1] | pest or weed control at 100 ppm (adult Musca domestica) | pest or weed control at 100 ppm (Lucilia cuprina larvae) | log P (second value after the slash) ([2]; pH 2.7) | chromatographic logP ([2]; pH 2.7, log P) | pest or weed control at 100 g/ha [3] | pest or weed control at 20 ppm (adult Musca domestica; 20 ppm, after 48 days)
4 | 2.82 | Cc1cc(C#N)cc(C(=O)NC2CCS(=O)(=O)C2)c1NC(=O)c1cc(Cn2nnc(C(F)(F)C(F)(F)F)n2)nn1-c1ncccc1Cl (stereo not drawn) [Example 38] | – | – | 100% | 100% | – | – | – | 100% | 100% | 100% | 100% | – | – | – | – | – | – | –
5 | 2.9 | Cc1cc(C#N)cc(C(=O)N[C@@H]2CCOC2=O)c1NC(=O)c1cc(Cn2nnc(C(F)(F)C(F)(F)F)n2)nn1-c1ncccc1Cl [Example 44] | – | 100% | 100% | 100% | – | 90% | 100% | 100% | – | – | – | – | – | – | – | – | – | –
6 | 3.97 | Cc1cc(C#N)cc(C(=O)NC2(c3cccc(C(F)(F)F)c3)CC2)c1NC(=O)c1cc(Cn2nnc(C(F)(F)F)n2)nn1-c1ncccc1Cl [Example 65] | – | 100% | – | 100% | – | 90% | 100% | 100% | – | – | – | – | – | – | – | – | – | 80%
